In US12583884B2, “3beta-(benzyloxy)-17alpha-methyl-pregn-5-en-20-one for use in the treatment of cognitive disorders” (AELIS FARMA, priority 2018, dated 2026):
Read-outs that look alike come from different tables or passages of the source.

Key:
[1] = test system: Steroid nuclear receptors ER; assay: Binding: ER; settings: 10 μM
Excerpt: (§1) The CEREP High-throughput profile consists of a broad collection of 80 transmembrane and soluble receptors, ion channels and G-Protein coupled receptors.

Bombesin BB = assay: CEREP binding profile: BB; settings: 10 μM
Excerpt: as §1

Melatonin MT1 (ML1A) = Melatonin MT1 (ML1A) (Homo sapiens, UniProt P48039); assay: CEREP binding profile: MT1
Excerpt: as §1

Sigma sigma = assay: CEREP binding profile: sigma; settings: 10 μM
Excerpt: as §1

[2] = target: Opioid and opioid-like mu (MOP) (Homo sapiens, UniProt P35372); assay: CEREP binding profile: mu; settings: 10 μM
Excerpt: as §1

Serotonin 5-HT1A = target: T1, Serotonin 5-HT1A (Homo sapiens, UniProt P08908); assay: CEREP binding profile: 5-HT1A
T1 construct: CEREP (contract panel)
Excerpt: as §1

[3] = target: PXR (non-steroid nuclear receptor) (Homo sapiens, UniProt O75469); assay: Binding: PXR
Excerpt: as §1

Neuropetide Y N1 = Neuropetide Y N1 (Homo sapiens, UniProt P25929); assay: CEREP binding profile: N1
Excerpt: as §1

Adenosine A1 = target: T2, Adenosine A1 (Homo sapiens, UniProt P30542); assay: CEREP binding profile: A1
T2 construct: CEREP
Excerpt: as §1

GABA BZD (central) = assay: CEREP binding profile: BZD (central); settings: 10 μM
Excerpt: as §1

Dopamine D4.4 = target: T3, Dopamine D4.4 (Homo sapiens, UniProt P21917); assay: CEREP binding profile: D4.4
T3 construct: CEREP
Excerpt: as §1

Neurokinin NK1 = Neurokinin NK1 (Homo sapiens, UniProt P25103); assay: CEREP binding profile: NK1
Excerpt: as §1

[4] = target: T4, Cholecystokinin CCK1 (CCKA) (Homo sapiens, UniProt P32238); assay: CEREP binding profile: CCK1
T4 construct: CEREP
Excerpt: as §1

Angiotensin-II AT1 = target: T5, Angiotensin-II AT1 (Homo sapiens, UniProt P30556); assay: CEREP binding profile: AT1
T5 construct: CEREP
Excerpt: as §1

Angiotensin-II AT2 = target: T6, Angiotensin-II AT2 (Homo sapiens, UniProt P50052); assay: CEREP binding profile: AT2
T6 construct: CEREP
Excerpt: as §1

Serotonin 5-HT2A = target: T7, Serotonin 5-HT2A (Homo sapiens, UniProt P28223); assay: CEREP binding profile: 5-HT2A
T7 construct: CEREP (contract panel)
Excerpt: as §1

Adrenergic beta1 = target: T8, Adrenergic beta1 (Homo sapiens, UniProt P08588); assay: CEREP binding profile: beta1
T8 construct: CEREP
Excerpt: as §1

[5] = target: T9, Cholecystokinin CCK2 (CCKB) (Homo sapiens, UniProt P32239); assay: CEREP binding profile: CCK2
T9 construct: CEREP
Excerpt: as §1

Adrenergic beta2 = target: T10, Adrenergic beta2 (Homo sapiens, UniProt P07550); assay: CEREP binding profile: beta2
T10 construct: CEREP
Excerpt: as §1

GABA Cl- channel = assay: CEREP binding profile: Cl- channel; settings: 10 μM
Excerpt: as §1

Serotonin 5-HT6 = target: T11, Serotonin 5-HT6 (Homo sapiens, UniProt P50406); assay: CEREP binding profile: 5-HT6
T11 construct: CEREP (contract panel)
Excerpt: as §1

Adrenergic alpha1 = assay: CEREP binding profile: alpha1; settings: 10 μM
Excerpt: as §1

Cannabinoid CB2 = target: T12, Cannabinoid CB2 (Homo sapiens, UniProt P34972); assay: Binding: CB2
T12 construct: CEREP
Excerpt: as §1

Cytokines TNF-alpha = assay: CEREP binding profile: TNF-alpha; settings: 10 μM
Excerpt: as §1

Chemokines CXCR2 = target: T13, Chemokines CXCR2 (Homo sapiens, UniProt P25025); assay: CEREP binding profile: CXCR2
T13 construct: CEREP
Excerpt: as §1

Dopamine D3 = target: T14, Dopamine D3 (Homo sapiens, UniProt P35462); assay: CEREP binding profile: D3
T14 construct: CEREP
Excerpt: as §1

Cannabinoid CB1 = target: T15, Cannabinoid CB1 (Homo sapiens, UniProt P21554); assay: CEREP binding profile: CB1
T15 construct: CEREP
Excerpt: as §1

K+ channels KV = assay: CEREP binding profile: KV; settings: 10 μM
Excerpt: as §1

[6] = target: T16, Transporters Serotonin 5-HT trans. (Homo sapiens, UniProt P31645); assay: CEREP binding profile: 5-HT trans.
T16 construct: CEREP (contract panel)
Excerpt: as §1

K+ channels SKCa = assay: CEREP binding profile: SKCa; settings: 10 μM
Excerpt: as §1

Prostanoid EP4 = Prostanoid EP4 (Homo sapiens, UniProt P35408); assay: CEREP binding profile: EP4
Excerpt: as §1

Transporters Dopamine = target: T17, Transporters Dopamine (Homo sapiens, UniProt Q01959); assay: CEREP binding profile: dopamine transporter
T17 construct: CEREP (contract panel)
Excerpt: as §1

Histamine H2 = Histamine H2 (Homo sapiens, UniProt P25021); assay: CEREP binding profile: H2
Excerpt: as §1

Purinergic channels P2X = assay: CEREP binding profile: P2X; settings: 10 μM
Excerpt: as §1

Serotonin 5-HT2C = target: T18, Serotonin 5-HT2C (Homo sapiens, UniProt P28335); assay: CEREP binding profile: 5-HT2C
T18 construct: CEREP (contract panel)
Excerpt: as §1

Adenosine A3 = target: T19, Adenosine A3 (Homo sapiens, UniProt P0DMS8); assay: CEREP binding profile: A3
T19 construct: CEREP
Excerpt: as §1

Muscarinic M5 = Muscarinic M5 (Homo sapiens, UniProt P08912); assay: CEREP binding profile: M5
Excerpt: as §1

Serotonin 5-HT3 = target: T20, Serotonin 5-HT3 (Homo sapiens, UniProt P46098); assay: CEREP binding profile: 5-HT3
T20 construct: CEREP
Excerpt: as §1

Chemokines CCR1 = target: T21, Chemokines CCR1 (Homo sapiens, UniProt P32246); assay: CEREP binding profile: CCR1
T21 construct: CEREP
Excerpt: as §1

Dopamine D2S = target: T22, Dopamine D2S (Homo sapiens, UniProt P14416); assay: CEREP binding profile: D2S
T22 construct: CEREP
Excerpt: as §1

Muscarinic M4 = Muscarinic M4 (Homo sapiens, UniProt P08173); assay: CEREP binding profile: M4
Excerpt: as §1

[7] = target: T23, Calcitonin gene-related CGRP (Homo sapiens, UniProt O60894+Q16602); assay: CEREP binding profile: CGRP
T23 construct: CEREP
Excerpt: as §1

Adrenergic alpha2 = assay: CEREP binding profile: alpha2; settings: 10 μM
Excerpt: as §1

T19 sequence (P0DMS8 whole entry): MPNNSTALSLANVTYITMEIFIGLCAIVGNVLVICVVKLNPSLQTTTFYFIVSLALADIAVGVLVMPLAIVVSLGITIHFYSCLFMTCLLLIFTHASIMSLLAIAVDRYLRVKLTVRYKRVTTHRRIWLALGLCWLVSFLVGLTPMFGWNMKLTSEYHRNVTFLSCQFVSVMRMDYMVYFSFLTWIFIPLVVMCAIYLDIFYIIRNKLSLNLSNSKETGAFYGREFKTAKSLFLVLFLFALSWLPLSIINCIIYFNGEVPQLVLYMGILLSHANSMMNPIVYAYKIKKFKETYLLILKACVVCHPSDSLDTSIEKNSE
T17 sequence (Q01959 whole entry): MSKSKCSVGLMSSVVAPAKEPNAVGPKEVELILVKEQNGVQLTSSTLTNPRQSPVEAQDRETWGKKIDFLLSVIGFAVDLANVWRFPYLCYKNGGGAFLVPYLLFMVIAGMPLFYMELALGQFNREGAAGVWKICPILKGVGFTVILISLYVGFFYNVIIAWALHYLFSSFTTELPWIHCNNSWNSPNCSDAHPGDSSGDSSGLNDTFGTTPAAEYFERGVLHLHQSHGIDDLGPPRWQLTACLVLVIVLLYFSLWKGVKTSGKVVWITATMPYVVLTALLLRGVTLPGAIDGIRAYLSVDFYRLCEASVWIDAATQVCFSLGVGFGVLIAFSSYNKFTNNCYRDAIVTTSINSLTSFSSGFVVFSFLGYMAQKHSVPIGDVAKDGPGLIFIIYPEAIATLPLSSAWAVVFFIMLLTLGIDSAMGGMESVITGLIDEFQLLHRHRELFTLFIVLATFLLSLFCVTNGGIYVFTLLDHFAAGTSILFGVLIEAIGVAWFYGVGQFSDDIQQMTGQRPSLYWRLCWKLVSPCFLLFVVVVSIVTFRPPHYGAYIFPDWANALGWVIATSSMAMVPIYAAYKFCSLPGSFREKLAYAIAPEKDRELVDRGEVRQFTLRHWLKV
T8 sequence (P08588 whole entry): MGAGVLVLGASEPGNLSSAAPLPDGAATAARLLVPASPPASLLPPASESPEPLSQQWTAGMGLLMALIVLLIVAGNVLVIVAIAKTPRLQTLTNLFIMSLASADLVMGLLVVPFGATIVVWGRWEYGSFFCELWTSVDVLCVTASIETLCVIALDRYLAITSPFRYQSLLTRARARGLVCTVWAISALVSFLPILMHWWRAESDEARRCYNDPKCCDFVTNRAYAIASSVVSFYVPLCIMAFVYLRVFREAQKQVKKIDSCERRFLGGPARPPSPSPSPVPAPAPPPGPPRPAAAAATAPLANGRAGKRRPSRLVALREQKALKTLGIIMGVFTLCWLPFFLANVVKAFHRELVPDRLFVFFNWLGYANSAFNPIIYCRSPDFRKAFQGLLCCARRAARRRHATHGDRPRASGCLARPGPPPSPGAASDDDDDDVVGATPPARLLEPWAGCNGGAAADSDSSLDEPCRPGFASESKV
T7 sequence (P28223 whole entry): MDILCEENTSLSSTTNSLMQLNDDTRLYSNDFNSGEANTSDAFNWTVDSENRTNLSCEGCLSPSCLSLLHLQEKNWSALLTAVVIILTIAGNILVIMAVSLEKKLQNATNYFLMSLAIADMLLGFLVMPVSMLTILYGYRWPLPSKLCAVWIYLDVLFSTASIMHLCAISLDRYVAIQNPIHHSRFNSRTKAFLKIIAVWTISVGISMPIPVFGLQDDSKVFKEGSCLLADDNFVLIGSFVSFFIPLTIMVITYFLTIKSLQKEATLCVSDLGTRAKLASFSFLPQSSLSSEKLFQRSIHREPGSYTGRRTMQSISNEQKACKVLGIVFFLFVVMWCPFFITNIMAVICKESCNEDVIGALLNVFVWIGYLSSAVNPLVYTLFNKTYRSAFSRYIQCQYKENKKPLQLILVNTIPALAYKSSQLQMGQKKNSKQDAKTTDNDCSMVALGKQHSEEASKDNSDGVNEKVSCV
Sequence of Neuropetide Y N1 (P25929 whole entry): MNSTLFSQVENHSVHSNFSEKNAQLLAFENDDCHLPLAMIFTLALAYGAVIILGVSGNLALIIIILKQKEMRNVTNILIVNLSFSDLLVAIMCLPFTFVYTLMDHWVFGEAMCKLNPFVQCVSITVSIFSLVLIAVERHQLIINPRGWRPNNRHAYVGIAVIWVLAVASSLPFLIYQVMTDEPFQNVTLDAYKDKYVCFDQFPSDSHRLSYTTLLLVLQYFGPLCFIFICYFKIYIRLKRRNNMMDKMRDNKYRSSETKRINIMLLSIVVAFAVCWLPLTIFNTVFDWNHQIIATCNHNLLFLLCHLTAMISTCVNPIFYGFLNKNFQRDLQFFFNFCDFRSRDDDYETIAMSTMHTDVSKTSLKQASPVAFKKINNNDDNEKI
Sequence of Muscarinic M4 (P08173 whole entry): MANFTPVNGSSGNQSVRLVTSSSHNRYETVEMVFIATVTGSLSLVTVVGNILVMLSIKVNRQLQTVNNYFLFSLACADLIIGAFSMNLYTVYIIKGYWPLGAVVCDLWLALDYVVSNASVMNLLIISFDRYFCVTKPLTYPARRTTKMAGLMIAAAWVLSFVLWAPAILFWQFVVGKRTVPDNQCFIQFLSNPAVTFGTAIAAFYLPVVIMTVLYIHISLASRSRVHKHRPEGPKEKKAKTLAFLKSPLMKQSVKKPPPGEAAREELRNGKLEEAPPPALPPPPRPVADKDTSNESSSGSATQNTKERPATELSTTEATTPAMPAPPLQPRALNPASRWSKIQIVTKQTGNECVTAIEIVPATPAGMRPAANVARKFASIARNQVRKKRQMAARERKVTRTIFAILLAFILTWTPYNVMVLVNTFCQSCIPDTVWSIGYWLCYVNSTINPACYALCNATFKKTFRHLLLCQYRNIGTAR
T9 sequence (P32239 whole entry): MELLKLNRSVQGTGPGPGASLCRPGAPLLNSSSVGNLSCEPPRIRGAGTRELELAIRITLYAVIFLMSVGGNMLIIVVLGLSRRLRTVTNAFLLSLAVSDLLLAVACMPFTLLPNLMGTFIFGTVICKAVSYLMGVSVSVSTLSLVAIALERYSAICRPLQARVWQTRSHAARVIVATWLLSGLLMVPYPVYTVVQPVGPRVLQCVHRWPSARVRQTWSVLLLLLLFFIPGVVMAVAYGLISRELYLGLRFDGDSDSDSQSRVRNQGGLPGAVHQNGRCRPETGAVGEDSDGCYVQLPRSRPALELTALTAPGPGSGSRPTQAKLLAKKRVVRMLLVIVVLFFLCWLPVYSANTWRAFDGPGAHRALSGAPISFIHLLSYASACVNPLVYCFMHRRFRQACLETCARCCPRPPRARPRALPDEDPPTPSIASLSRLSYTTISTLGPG
T5 sequence (P30556 whole entry): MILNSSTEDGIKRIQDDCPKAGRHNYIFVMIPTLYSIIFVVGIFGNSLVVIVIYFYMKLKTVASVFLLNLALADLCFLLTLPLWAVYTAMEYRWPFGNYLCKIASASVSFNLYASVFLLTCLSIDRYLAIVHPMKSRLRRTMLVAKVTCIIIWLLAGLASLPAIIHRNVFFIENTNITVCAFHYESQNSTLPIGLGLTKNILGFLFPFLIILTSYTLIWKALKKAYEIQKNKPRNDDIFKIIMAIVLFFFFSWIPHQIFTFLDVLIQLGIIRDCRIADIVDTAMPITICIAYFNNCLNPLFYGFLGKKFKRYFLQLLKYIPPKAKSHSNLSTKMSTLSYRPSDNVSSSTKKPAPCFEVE
T20 sequence (P46098 24-478): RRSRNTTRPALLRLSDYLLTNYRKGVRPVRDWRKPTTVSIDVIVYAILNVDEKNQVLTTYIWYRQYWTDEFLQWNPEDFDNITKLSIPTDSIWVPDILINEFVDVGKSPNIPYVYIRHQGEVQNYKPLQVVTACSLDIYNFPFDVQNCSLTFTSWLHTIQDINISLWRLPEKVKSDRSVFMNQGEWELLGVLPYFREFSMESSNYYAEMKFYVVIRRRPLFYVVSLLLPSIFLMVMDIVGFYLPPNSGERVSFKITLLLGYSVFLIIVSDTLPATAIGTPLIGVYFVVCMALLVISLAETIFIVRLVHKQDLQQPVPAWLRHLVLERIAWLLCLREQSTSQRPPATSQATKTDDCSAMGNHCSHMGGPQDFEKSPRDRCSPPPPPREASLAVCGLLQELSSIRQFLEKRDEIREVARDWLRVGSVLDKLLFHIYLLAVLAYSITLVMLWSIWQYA
T3 sequence (P21917 whole entry): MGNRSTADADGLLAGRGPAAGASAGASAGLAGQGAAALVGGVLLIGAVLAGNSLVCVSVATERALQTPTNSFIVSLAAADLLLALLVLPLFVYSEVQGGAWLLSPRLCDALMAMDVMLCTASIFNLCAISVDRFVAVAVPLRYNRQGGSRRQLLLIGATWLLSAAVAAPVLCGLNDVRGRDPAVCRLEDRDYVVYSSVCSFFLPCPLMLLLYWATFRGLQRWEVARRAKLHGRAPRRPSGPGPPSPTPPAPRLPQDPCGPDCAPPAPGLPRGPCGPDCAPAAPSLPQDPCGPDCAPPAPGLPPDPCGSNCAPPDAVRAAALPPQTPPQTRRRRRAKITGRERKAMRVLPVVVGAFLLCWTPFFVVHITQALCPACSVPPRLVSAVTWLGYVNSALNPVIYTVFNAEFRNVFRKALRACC
T12 sequence (P34972 whole entry): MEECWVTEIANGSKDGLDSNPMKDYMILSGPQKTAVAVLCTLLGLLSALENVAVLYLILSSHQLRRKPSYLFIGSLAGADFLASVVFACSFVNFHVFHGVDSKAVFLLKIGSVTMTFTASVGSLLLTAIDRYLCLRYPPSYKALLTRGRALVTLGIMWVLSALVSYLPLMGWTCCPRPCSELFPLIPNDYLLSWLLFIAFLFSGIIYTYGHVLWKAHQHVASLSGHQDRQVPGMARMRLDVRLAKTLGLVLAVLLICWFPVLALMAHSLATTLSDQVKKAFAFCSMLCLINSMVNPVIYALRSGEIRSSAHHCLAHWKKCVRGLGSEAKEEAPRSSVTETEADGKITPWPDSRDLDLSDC

For `CC(=O)[C@H]1CC[C@H]2[C@@H]3CC=C4C[C@@H](O)CC[C@]4(C)[C@H]3CC[C@]12C` [pregnenolone, reference compound], the Inhibition % [1] was 26%, the “% Inhibition” value (Bombesin BB) was −18% and the inhibition at 10 µM (Melatonin MT1 (ML1A)) was 26%. The Inhibition % (Sigma sigma) was 26%, the “% Inhibition” value [2] was −5% and the inhibition at 10 µM (Serotonin 5-HT1A) was 12%. The inhibition at 10 µM ([3]; PXR receptor binding assay (ligand displacement)) was 15%, the inhibition at 10 µM (Neuropetide Y N1) was -11% and the inhibition at 10 µM (Adenosine A1) was -25%. For the same molecule, the Inhibition % (GABA BZD (central)) was over 40%, the Inhibition % (GABA BZD (central); listed as PREG) was −43% and the inhibition at 10 µM (Dopamine D4.4) was 20%. It also gave an inhibition at 10 µM (Neurokinin NK1) of 17%, an inhibition at 10 µM [4] of -30% and an inhibition at 10 µM (Angiotensin-II AT1) of -28%. For the same molecule, the inhibition at 10 µM (Angiotensin-II AT2) was -18%, the inhibition at 10 µM (Serotonin 5-HT2A; 5-HT2A, 10 μM, read-out: % Inhibition) was -1% and the inhibition at 10 µM (Adrenergic beta1) was 4%. For the same molecule, the inhibition at 10 µM [5] was -38%, the inhibition at 10 µM (Adrenergic beta2) was -5% and the Inhibition % (GABA Cl- channel) was 29%. The inhibition at 10 µM (Serotonin 5-HT6) was 5%, the “% Inhibition” value (Adrenergic alpha1) was 1% and the inhibition at 10 µM (Cannabinoid CB2; CB2, 10 μM, read-out: % Inhibition) was -19%. For the same molecule, the Inhibition % (Cytokines TNF-alpha) was 4%, the inhibition at 10 µM (Chemokines CXCR2) was -10% and the inhibition at 10 µM (Dopamine D3) was 11%. The inhibition at 10 µM (Cannabinoid CB1) was 10%, the “% Inhibition” value (K+ channels KV) was −23% and the inhibition at 10 µM ([6]; 5-HT trans., 10 μM, read-out: % Inhibition) was 1%. For the same molecule, the “% Inhibition” value (K+ channels SKCa) was −8%, the inhibition at 10 µM (Prostanoid EP4) was 21% and the inhibition at 10 µM (Transporters Dopamine; dopamine transporter, 10 μM, read-out: % Inhibition) was -12%. It also gave an inhibition at 10 µM (Histamine H2) of 9%, an Inhibition % (Purinergic channels P2X) of 13% and an inhibition at 10 µM (Serotonin 5-HT2C) of -9%. It also gave an inhibition at 10 µM (Adenosine A3) of 11%, an inhibition at 10 µM (Muscarinic M5; M5, 10 μM, read-out: % Inhibition) of 8% and an inhibition at 10 µM (Serotonin 5-HT3) of 6%. It also gave an inhibition at 10 µM (Chemokines CCR1) of -10%, an inhibition at 10 µM (Dopamine D2S) of 5% and an inhibition at 10 µM (Muscarinic M4; M4, 10 μM, read-out: % Inhibition) of -4%. For the same molecule, the inhibition at 10 µM [7] was -12% and the “% Inhibition” value (Adrenergic alpha2) was −2%.
In the case of `CC(=O)[C@@]1(C)CC[C@H]2[C@@H]3CC=C4C[C@@H](OCc5ccccc5)CC[C@]4(C)[C@H]3CC[C@@]21C` [3Bn17MeP, 3β-benzyloxy, 17α-methyl-pregn-5-en-20-one], the Inhibition % [1] is reported as −5%, the “% Inhibition” value (Bombesin BB) is reported as −6% and the inhibition at 10 µM (Melatonin MT1 (ML1A)) is reported as -8%. For the same molecule, the Inhibition % (Sigma sigma) was 9%, the “% Inhibition” value [2] was −4% and the “% Inhibition” value (Serotonin 5-HT1A; 10 μM) was 25%. It also gave an inhibition at 10 µM [3] of -8%, an inhibition at 10 µM (Neuropetide Y N1) of -32% and an inhibition at 10 µM (Adenosine A1) of -27%. For the same molecule, the Inhibition % (GABA BZD (central)) was −16%, the “% Inhibition” value (Dopamine D4.4; 10 μM) was −10% and the inhibition at 10 µM (Neurokinin NK1) was 8%. The inhibition at 10 µM [4] was 2%, the inhibition at 10 µM (Angiotensin-II AT1) was -13% and the inhibition at 10 µM (Angiotensin-II AT2) was -5%. The inhibition at 10 µM (Serotonin 5-HT2A) was -8%, the “% Inhibition” value (Adrenergic beta1; 10 μM) was 7% and the inhibition at 10 µM [5] was -21%. The “% Inhibition” value (Adrenergic beta2; 10 μM) was −4%, the Inhibition % (GABA Cl- channel) was 1% and the “% Inhibition” value (Serotonin 5-HT6; 10 μM) was −1%. The “% Inhibition” value (Adrenergic alpha1) was 5%, the inhibition at 10 µM (Cannabinoid CB2) was 2% and the Inhibition % (Cytokines TNF-alpha) was 4%. For the same molecule, the inhibition at 10 µM (Chemokines CXCR2) was 0%, the “% Inhibition” value (Dopamine D3; 10 μM) was −2% and the “% Inhibition” value (Cannabinoid CB1; 10 μM) was 2%. The “% Inhibition” value (K+ channels KV) was −15%, the inhibition at 10 µM [6] was 1% and the “% Inhibition” value (K+ channels SKCa) was −3%. The inhibition at 10 µM (Prostanoid EP4) was 25%, the inhibition at 10 µM (Transporters Dopamine) was -23% and the inhibition at 10 µM (Histamine H2) was 12%. For the same molecule, the Inhibition % (Purinergic channels P2X) was 8%, the “% Inhibition” value (Serotonin 5-HT2C; 10 μM) was 10% and the inhibition at 10 µM (Adenosine A3) was 1%. For the same molecule, the inhibition at 10 µM (Muscarinic M5) was 0%, the Inhibition % (Serotonin 5-HT3; 10 μM) was 4% and the inhibition at 10 µM (Chemokines CCR1) was -13%. The “% Inhibition” value (Dopamine D2S; 10 μM) was 6%, the inhibition at 10 µM (Muscarinic M4) was 2% and the inhibition at 10 µM [7] was -15%. For the same molecule, the “% Inhibition” value (Adrenergic alpha2) was −1%.
